Assay results as given in patent publication US8758770B2 (Research Development Foundation, priority 2006, dated 2014).
Where no end group is shown, it is not given here.

Experiments:
Assay type in all cases: in vivo
[1] = tested on: EAE in C57BL/6 mice immunized with MOG peptide 35-55; assay: Oral ACTH treatment of EAE mice, clinical score; parameters: key to Clinical Score: 0 = no disease to 6 = paraplegia with severe weakness/ataxia
Protocol: EAE is a T cell mediated inflammatory autoimmune process of the CNS that resembles in some aspects the human demyelinating disease multiple sclerosis. It thus provides a useful animal model for the evaluation of potential therapies for MS. […] This protocol mimics clinical practice since patients are treated with ACTHAR® Gel after they experience a clinical exacerbation of their disease, albeit clinical treatment is via intramuscular injection.
Clinical severity is graded daily by a blinded observer as follows: 0=no disease; 1=minimal or mild hind limb weakness (associated with limp tail); 2=moderate hind limb weakness or mild ataxia (waddling gait and/or poor righting ability); 3=moderate to severe hind limb weakness; 4=severe hind limb weakness or moderate ataxia; 5=paraplegia with no more than moderate four limb weakness; 6=paraplegia with severe four limb weakness or severe ataxia. […]

[2] = tested on: EAE in C57BL/6 mice immunized with MOG peptide 35-55; assay: Spinal cord foci of inflammation after oral ACTH in EAE mice; settings: Ex 1-A, control mock placebo group 4.72±0.34
Protocol: Following administration, clinical outcome is measured in at least two ways: by comparing the difference between group active treatment scores and placebo group scores from day 26-33 post immunization, and comparing group mean scores directly (day 17-35 post-immunization). Following sacrifice, spinal cords are removed and evaluated independently for foci of inflammation by a blinded observer.

[3] = Toxicity of oral ACTH administered over an extended time period; settings: orally administered to mice over an extended time period

SYSMEHFRWGKPVGKKRRPVKVYPDGAEDQLAEAFPLEF [ACTH]
recovery from EAE attack compared to placebo, difference between group active treatment and placebo group scores ([1]; Ex 1-A, 10 or 1000 microgram oral dose, 10 microgram p<0.03, 1000 microgram p<0.05): significantly improved recovery
recovery compared to placebo, comparing group mean scores directly ([1]; Ex 1-A, oral doses of 10, 100, and 1000 microgram): significantly faster recovery
recovery from EAE attack compared to placebo, difference between group active treatment and group placebo scores ([1]; Ex 1-B, 10 IU p<0.0001, 100 IU p<0.0003, 1000 IU p<0.0007): significantly improved recovery
recovery from EAE attack compared to placebo, comparing group mean scores directly ([1]; Ex 1-B, oral 10 and 1000 IU, 10 IU p<0.00001, 100 IU p<0.00006, 1000 IU p<0.00003): significantly improved recovery
Clinical Score ([1]; Table 1, Ex 1-A, ACTH 10 microgram oral daily, day 28, control 2.88): 1.38
Clinical Score ([1]; Table 1, Ex 1-A, ACTH 10 microgram oral daily, day 32, control 3): 1.38
Clinical Score ([1]; Table 1, Ex 1-A, ACTH 10 microgram oral daily, day 33, control 3): 1.375
Clinical Score ([1]; Table 1, Ex 1-A, ACTH 10 microgram oral daily, day 35, control 3.13): 1.38
Clinical Score ([1]; Table 1, Ex 1-A, ACTH 100 microgram oral daily, day 22, control 2.63): 2.5
Clinical Score ([1]; Table 2, Ex 1-B, 1000 IU oral daily, day 40, control […]): 1.13
Clinical Score ([1]; Table 2, Ex 1-B, ACTH 10 IU oral daily, day 32, control […]): 1.38
Clinical Score ([1]; Table 2, Ex 1-B, ACTH 10 IU oral daily, day 33, control 2): 1
Clinical Score ([1]; Table 2, Ex 1-B, ACTH 10 IU oral daily, day 40, control […]): 1.25
Clinical Score ([1]; Table 2, Ex 1-B, ACTH 100 IU oral daily, day 32, control […]): 1.38
Clinical Score ([1]; Table 2, Ex 1-B, ACTH 100 IU oral daily, day 40, control […]): 1.38
mean group inflammatory score (inflammatory foci, spinal cord) ([2]; 10 microgram fed group, p<0.008): 3.05±0.3
mean group inflammatory score (inflammatory foci, spinal cord) ([2]; 1000 microgram fed group, p<0.00002): 2.27±0.23
toxicity [3]: no detectable toxicity
